From PubChem BioAssay AID248 (DTP/NCI, 2004)
Inconclusive results and toxic doses are left out. Rule as the data show it: active = T/C of 150% or more; inactive = T/C below 125%. Square brackets hold non-standard residues; d marks the D form. Peptide text beside a SMILES is read from it. * marks the point of attachment. ξ: configuration not given here. ξY = NC(Cc1ccc(O)cc1)C(=O)O; Cbz = O=C(OCc1ccccc1)*

Test system: L1210 leukemia ip in BDF1 mice, survival T/C
Assay: NCI In Vivo Anticancer Drug Screen. Data for tumor model L1210 Leukemia (intraperitoneal) in B6D2F1 (BDF1) mice
Conditions: endpoint: mean survival time, higher = longer survival
Procedure, shortened: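 In this screen, tumor-bearing mice given compound are compared to those given vehicle, and their survival values are reported as a treated-to-control quotient.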

[1] = dose: 100.0 mg/kg/injection, schedule: Q04DX003 (ip), vehicle: saline with Tween-80
[2] = dose: 200.0 mg/kg/injection, schedule: Q04DX003 (ip), vehicle: saline with Tween-80
[3] = dose: 400.0 mg/kg/injection, schedule: Q04DX003 (ip), vehicle: saline with Tween-80
[4] = dose: 100.0 mg/kg/injection, schedule: Q04DX003 (ip), vehicle: Klucel (hydroxypropylcellulose) (HPC)
[5] = dose: 100.0 mg/kg/injection, schedule: Q04DX002 (ip), vehicle: saline
[6] = dose: 200.0 mg/kg/injection, schedule: Q04DX002 (ip), vehicle: saline
[7] = dose: 400.0 mg/kg/injection, schedule: Q04DX002 (ip), vehicle: saline
[8] = dose: 50.0 mg/kg/injection, schedule: Q01DX001 (ip), vehicle: saline
[9] = dose: 100.0 mg/kg/injection, schedule: Q01DX001 (ip), vehicle: saline
[10] = dose: 200.0 mg/kg/injection, schedule: Q01DX001 (ip), vehicle: saline
[11] = dose: 50.0 mg/kg/injection, schedule: Q01DX009 (ip), vehicle: saline with Tween-80
[12] = dose: 100.0 mg/kg/injection, schedule: Q01DX009 (ip), vehicle: saline with Tween-80
[13] = dose: 200.0 mg/kg/injection, schedule: Q01DX009 (ip), vehicle: saline with Tween-80
[14] = dose: 100.0 mg/kg/injection, schedule: Q01DX009 (ip), vehicle: Klucel (hydroxypropylcellulose) (HPC)
[15] = dose: 200.0 mg/kg/injection, schedule: Q01DX009 (ip), vehicle: Klucel (hydroxypropylcellulose) (HPC)
[16] = dose: 400.0 mg/kg/injection, schedule: Q01DX009 (ip), vehicle: Klucel (hydroxypropylcellulose) (HPC)

Measured: T/C

CCOC(=O)C(Cc1ccc(O)cc1)NC(=O)CNC(=O)OCc1ccccc1 (stereo not drawn) (Cbz-Gly-[ξY]-OEt)
inactive: [1] 106 % of control | [2] 95 % of control | [3] 96 % of control

S=C(Nc1cc2c3c(c1)CCCN3CCC2)Nc1cc2c3c(c1)CCCN3CCC2
inactive: dose: 50.0 mg/kg/injection, schedule: Q01DX001 (ip), vehicle: saline with Tween-80 107 % of control | dose: 100.0 mg/kg/injection, schedule: Q01DX001 (ip), vehicle: saline with Tween-80 94 % of control | dose: 200.0 mg/kg/injection, schedule: Q01DX001 (ip), vehicle: saline with Tween-80 97 % of control | dose: 400.0 mg/kg/injection, schedule: Q01DX001 (ip), vehicle: saline with Tween-80 89 % of control

NC(=O)C(=O)NCCCCN1CC1
inactive: dose: 12.5 mg/kg/injection, schedule: Q04DX003 (ip), vehicle: Klucel (hydroxypropylcellulose) (HPC) 97 % of control | dose: 25.0 mg/kg/injection, schedule: Q04DX003 (ip), vehicle: Klucel (hydroxypropylcellulose) (HPC) 97 % of control | dose: 50.0 mg/kg/injection, schedule: Q04DX003 (ip), vehicle: Klucel (hydroxypropylcellulose) (HPC) 102 % of control | [4] 114 % of control

Cn1c2c(c(=O)n(C)c1=O)C(C=O)C(=O)N2 (stereo not given)
inactive: [5] 101 % of control | [6] 87 % of control | [7] 90 % of control

CN(C)C1(C(=O)O)c2ccccc2-c2ccccc21
inactive: [8] 100 % of control | [9] 100 % of control | [10] 97 % of control

CC(C)(C)NC(=O)NN(c1ccccc1)C1CCS(=O)(=O)C1 (stereo not given)
inactive: [5] 108 % of control | [6] 97 % of control | [7] 97 % of control

O=C(Nc1cc(C(F)(F)F)cc(C(F)(F)F)c1)Nc1c(Oc2ccc(Cl)cc2Cl)ccc(Cl)c1S(=O)(=O)O
inactive: dose: 100.0 mg/kg/injection, schedule: Q04DX003 (ip), vehicle: saline sonified 100 % of control | dose: 200.0 mg/kg/injection, schedule: Q04DX003 (ip), vehicle: saline sonified 100 % of control

CN(CCNC(=O)c1ccccc1C(=O)O)c1ccccc1
inactive: dose: 100.0 mg/kg/injection, schedule: Q04DX002 (ip), vehicle: saline with Tween-80 100 % of control | dose: 200.0 mg/kg/injection, schedule: Q04DX002 (ip), vehicle: saline with Tween-80 95 % of control

CC(C)(C)C(/C=N/N=C(N)N)=N\N=C(N)N
inactive: dose: 15.0 mg/kg/injection, schedule: Q01DX Z (ip), vehicle: methylcellulose (MC) 105 % of control | dose: 30.0 mg/kg/injection, schedule: Q01DX Z (ip), vehicle: methylcellulose (MC) 91 % of control | dose: 60.0 mg/kg/injection, schedule: Q01DX Z (ip), vehicle: methylcellulose (MC) 94 % of control | dose: 120.0 mg/kg/injection, schedule: Q01DX Z (ip), vehicle: methylcellulose (MC) 91 % of control | dose: 600.0 mg/kg/injection, schedule: Q01DX Z (oral), vehicle: methylcellulose (MC) 110 % of control | dose: 720.0 mg/kg/injection, schedule: Q01DX Z (oral), vehicle: methylcellulose (MC) 98 % of control

CCOC(=O)Sc1ccccc1
inactive: dose: 100.0 mg/kg/injection, schedule: Q01DX001 (ip), vehicle: other 102 % of control | dose: 200.0 mg/kg/injection, schedule: Q01DX001 (ip), vehicle: other 94 % of control

CN(C)CCCNC(=S)Nc1ccc(Cl)cc1
inactive: [11] 108 % of control | [12] 108 % of control

COC(=O)C(CSCSC)NC(=O)Nc1ccc(F)cc1 (stereo not given)
inactive: [11] 98 % of control | [12] 93 % of control | [1] 95 % of control | [13] 94 % of control | [2] 93 % of control | [3] 95 % of control

Nc1ccc(C(=O)Nc2ccc(NC(=O)Nc3ccc(NC(=O)c4ccc(N)cc4)c(S(=O)(=O)O)c3)cc2S(=O)(=O)O)cc1
inactive: dose: 60.0 mg/kg/injection, schedule: Q01DX Z (ip), vehicle: carboxymethylcellulose (CMC) 96 % of control | dose: 120.0 mg/kg/injection, schedule: Q01DX Z (ip), vehicle: carboxymethylcellulose (CMC) 98 % of control | dose: 240.0 mg/kg/injection, schedule: Q01DX Z (ip), vehicle: carboxymethylcellulose (CMC) 95 % of control | dose: 240.0 mg/kg/injection, schedule: Q01DX Z (oral), vehicle: carboxymethylcellulose (CMC) 106 % of control | dose: 480.0 mg/kg/injection, schedule: Q01DX Z (ip), vehicle: carboxymethylcellulose (CMC) 95 % of control | dose: 480.0 mg/kg/injection, schedule: Q01DX Z (oral), vehicle: carboxymethylcellulose (CMC) 112 % of control | dose: 960.0 mg/kg/injection, schedule: Q01DX Z (oral), vehicle: carboxymethylcellulose (CMC) 93 % of control

O=C1CCCc2ccc(Cl)cc21
inactive: dose: 100.0 mg/kg/injection, schedule: Q01DX009 (ip), vehicle: saline 96 % of control | dose: 200.0 mg/kg/injection, schedule: Q01DX009 (ip), vehicle: saline 97 % of control | dose: 400.0 mg/kg/injection, schedule: Q01DX009 (ip), vehicle: saline 94 % of control

CSCCC(C#N)c1ccccc1 (stereo not given)
inactive: [11] 93 % of control | [12] 104 % of control | [1] 103 % of control | dose: 100.0 mg/kg/injection, schedule: Q04DX003 (ip), vehicle: saline 103 % of control | [13] 110 % of control | [2] 97 % of control | dose: 200.0 mg/kg/injection, schedule: Q04DX003 (ip), vehicle: saline 97 % of control

O=c1c2ccccc2c(=O)c2c1ccc1[nH]c3ccccc3n(-c3ccccc3)c12
inactive: [1] 88 % of control | [2] 89 % of control | [3] 94 % of control

CCOC(=O)c1cc(OC)c[nH]1
inactive: [8] 100 % of control | [9] 94 % of control | [10] 88 % of control | dose: 400.0 mg/kg/injection, schedule: Q01DX001 (ip), vehicle: saline 105 % of control

O=C1CN=C(c2ccccn2)c2cc(Cl)ccc2N1CCO
inactive: [12] 106 % of control | [1] 96 % of control | [13] 101 % of control | [2] 112 % of control | dose: 400.0 mg/kg/injection, schedule: Q01DX009 (ip), vehicle: saline with Tween-80 98 % of control | [3] 91 % of control

COc1ccc(NC(=O)c2cccc(C(=O)Nc3ccc(OC)cc3)c2)cc1
inactive: [14] 88 % of control | [4] 93 % of control | [15] 97 % of control | dose: 200.0 mg/kg/injection, schedule: Q04DX003 (ip), vehicle: Klucel (hydroxypropylcellulose) (HPC) 88 % of control | [16] 97 % of control | dose: 400.0 mg/kg/injection, schedule: Q04DX003 (ip), vehicle: Klucel (hydroxypropylcellulose) (HPC) 93 % of control

O=C(O)COc1ccc(Br)cn1
inactive: dose: 100.0 mg/kg/injection, schedule: Q04DX002 (ip), vehicle: Klucel (hydroxypropylcellulose) (HPC) 104 % of control | dose: 200.0 mg/kg/injection, schedule: Q04DX002 (ip), vehicle: Klucel (hydroxypropylcellulose) (HPC) 101 % of control | dose: 400.0 mg/kg/injection, schedule: Q04DX002 (ip), vehicle: Klucel (hydroxypropylcellulose) (HPC) 104 % of control

COc1ccccc1C(=O)N/N=C/c1ccc(O)cc1
inactive: [14] 101 % of control | [15] 97 % of control | [16] 94 % of control

CN(C(N)=S)c1ccccc1
inactive: [1] 101 % of control | [2] 102 % of control | [3] 104 % of control
